# Patent publication US11091486B2, “Process for the preparation of pyrazolo[1,5-a]pyrimidines and salts thereof” (Array BioPharma Inc., priority 2016, dated 2021)
# Entries after “also recorded” stand apart in the source; their conditions may differ. Where two headings read alike, the source gives them in different places.
# How the values were obtained:
# Format in all cases: physicochemical
# [1] = Gravimetric vapor sorption (GVS)
# Protocol: Approximately 10-20 mg of sample was placed into a mesh vapor sorption balance pan and loaded into an IGASorp Moisture Sorption Analyzer balance by Hiden Analytical. […] After completion of the sorption cycle, the sample was dried using the same procedure to 0% RH, and finally taken back to the starting point of 40% RH. The weight change during the sorption/desorption cycles were plotted, allowing for the hygroscopic nature of the sample to be determined.
# [2] = Dynamic vapor sorption (DVS); conditions: for Hygroscopicity, mass uptake by DVS: at 90% RH; for Crystalline form by XRPD after exposure to DVS humidity conditions: post-DVS XRPD
# Protocol: Approximately, 10 mg of sample was placed into a mesh vapor sorption balance pan and loaded into a DVS-1 dynamic vapor sorption balance by Surface Measurement Systems. The sample was subjected to a ramping profile from 40-90% relative humidity (RH) at 10% increments, maintaining the sample at each step until a stable weight had been achieved (99.5% step completion). After completion of the sorption cycle, the sample was dried using the same procedure to 0% RH and then a second sorption cycle back to 40% RH. The weight change during the sorption/desorption cycles were plotted, allowing for the hygroscopic nature of the sample to be determined. XRPD analysis was then carried out on any solid retained.
# [3] = Salt stability studies, 40° C./75% RH for 1 week, XRPD
# Protocol: Recovered salts were placed in an oven at 40° C./75% RH for 1 week, and the resultant materials were analyzed by XRPD to determine any changes to form or crystallinity.
# [4] = 1-week stability tests (40° C./75% RH, 80° C., ambient light), XRPD and UPLC
# From the text: Compound 1 (Form I) was subjected to various different environmental conditions to assess stability.
# [5] = Thermodynamic solubility of prepared salts
# Protocol: Thermodynamic solubility studies were carried out as follows: 10 mg of prepared salts were suspended in pH 1, 4.5, 6.8 and un-buffered water (300 μL). The pH of the slurries was measured and adjusted accordingly using either 0.2M HCl solution or 0.2M sodium hydroxide solution. The slurries were agitated for 24 hours at ambient temperature using an incubator shaker.
# [6] = Hydration screen in acetone/water mixtures; conditions: 24 hr
# Protocol: Hydration screen was carried out as follows: 10 mg of prepared salts were suspended in several acetone/water mixtures of various water activities (low: aw=0.281, medium: aw=0.776 and high: aw=0.919) and agitated at ambient temperatures for 24 hr. Any recovered solids were submitted for XRPD analysis to determine any changes to form.
# [7] = Salt disproportionation studies; conditions: deionized water, 24 h at ambient temperature
# Protocol: Salt disproportionation studies were carried out as follows: 20 mg of prepared salts were weighed into a vial and 0.5 mL of deionized water was added. The samples were then agitated for 24 h at ambient temperature. The pH of the samples was taken pre- and post-agitation. Any solids recovered were submitted for XRPD analysis to determine any changes to form.
# [8] = Approximate solvent solubility of amorphous Compound 1 free base by solvent addition (Example 1); conditions: for solubility: organic solvent or mixture, thermodynamic from solid, read-out: Approx. Solubility
# Protocol: A solid Compound 1 was obtained as follows. A […] of solution containing about 330 mg of Compound 1 in warm 1,4-dioxane was divided between 33, 2 mL glass vials (1.5 mL in each). The solutions were frozen and freeze-dried by lyophilization overnight. The resulting material was then analyzed by XRPD to confirm mostly amorphous material.
# Approximately 10 mg of amorphous Compound 1 was produced in 32×2 mL glass vials from freeze drying and 100 μL of the appropriate solvent system was added to the appropriate vial. Between each addition, the mixture was checked for dissolution and if no dissolution was apparent, the mixture was heated to about 40° C. and checked again. This procedure was continued until dissolution was observed or until 2 mL had been added (to the compound concentration of <5 mg/mL).
# [9] = salt recovered from isopropanol
smiles,measurement,setting,value
"C[C@@H]1CCc2ncc(F)cc2[C@H]2CCCN2c2ccn3ncc(c3n2)C(=O)N1 [Form I, (6R,15R)-9-fluoro-15-methyl-2,11,16,20,21,24-hexaazapentacyclo[16.5.2.0^2,6.0^7,12.0^21,25]pentacosa-1(24),7,9,11,18(25),19,22-heptaen-17-one]","Hygroscopicity, mass uptake by GVS",[1]; at 90% RH,about 0.3%
same,"Hygroscopicity, mass uptake by DVS",[2],about 0.7%
C[C@@H]1CCc2ncc(F)cc2[C@H]2CCCN2c2ccn3ncc(c3n2)C(=O)N1.O=C(O)C[C@H](O)C(=O)O [crystalline L-malate],Post-stability XRPD: changes to form or crystallinity,[3]; salt recovered from TBME,no change to crystallinity and form
C[C@@H]1CCc2ncc(F)cc2[C@H]2CCCN2c2ccn3ncc(c3n2)C(=O)N1.O=C(O)CCC(=O)O [crystalline succinate],Post-stability XRPD: changes to form or crystallinity,[3]; salt recovered from acetone,a decrease in crystallinity but no change to form
C[C@@H]1CCc2ncc(F)cc2[C@H]2CCCN2c2ccn3ncc(c3n2)C(=O)N1 [edisylate],Post-stability XRPD: changes to form or crystallinity,[3]; [9],become amorphous
C[C@@H]1CCc2ncc(F)cc2[C@H]2CCCN2c2ccn3ncc(c3n2)C(=O)N1.O=C(O)/C=C/C(=O)O [crystalline fumarate],Post-stability XRPD: changes to form or crystallinity,[3]; salt recovered from acetone,"a slight decrease to crystallinity however, no change to form"
C[C@@H]1CCc2ncc(F)cc2[C@H]2CCCN2c2ccn3ncc(c3n2)C(=O)N1.O=S(=O)(O)c1ccccc1 [Compound 1 besylate],1-week stability test: change to form (XRPD),[4]; 40° C./75% RH,appears to be a mixture of besylate salt and something else
same,1-week stability test: change in purity (UPLC),[4]; 80° C.,no change to purity
same,1-week stability test: change to form (XRPD),[4]; 80° C.,no change to form
same,1-week stability test: change in purity (UPLC),[4]; ambient light,no change to purity
same,1-week stability test: change to form (XRPD),[4]; ambient light,no change to form
same,Thermodynamic solubility in words,[5]; pH 1,highly soluble
same,Solid recovered from thermodynamic solubility slurry (XRPD),[5]; pH 4.5,an unknown form
same,Thermodynamic solubility in words,[5]; pH 4.5,moderately soluble
same,Solid recovered from thermodynamic solubility slurry (XRPD),[5]; pH 6.8,poorly crystalline free base
same,Thermodynamic solubility in words,[5]; pH 6.8,low solubility
same,Solid recovered from thermodynamic solubility slurry (XRPD),[5]; unbuffered water,poorly crystalline free base
same,Thermodynamic solubility in words,[5]; unbuffered water,moderately soluble
same,"Hygroscopicity, mass uptake by DVS",[2],about 0.7%
same,Crystalline form by XRPD after exposure to DVS humidity conditions,[2],no changes in crystalline form
same,Hydration study: recovered solid by XRPD,[6]; high water activity (aw=0.919),poorly crystalline besylate salt
same,Hydration study: recovered solid by XRPD,[6]; low water activity (aw=0.281),poorly crystalline besylate salt
same,Salt disproportionation: recovered material by XRPD,[7],poorly crystalline free base
C[C@@H]1CCc2ncc(F)cc2[C@H]2CCCN2c2ccn3ncc(c3n2)C(=O)N1.O=C(O)C(=O)O [oxalate],Post-stability XRPD: changes to form or crystallinity,[3]; salt recovered from ethanol,a change in crystallinity and form
same,Post-stability XRPD: changes to form or crystallinity,[3]; salt recovered from methanol,"no change to crystallinity however, changes to form were seen"
CS(=O)(=O)O.C[C@@H]1CCc2ncc(F)cc2[C@H]2CCCN2c2ccn3ncc(c3n2)C(=O)N1 [crystalline mesylate],Post-stability XRPD: changes to form or crystallinity,[3]; salt recovered from acetone,no changes to crystallinity or form
same,Post-stability XRPD: changes to form or crystallinity,[3]; [9],a slight increase in crystallinity but no changes to form
same,Post-stability XRPD: changes to form or crystallinity,[3]; salt recovered from methanol,a decrease in crystallinity but no changes to form
C[C@@H]1CCc2ncc(F)cc2[C@H]2CCCN2c2ccn3ncc(c3n2)C(=O)N1.Cc1ccc(S(=O)(=O)O)cc1,Post-stability XRPD: changes to form or crystallinity,[3]; salt recovered from acetone,become amorphous
C[C@@H]1CCc2ncc(F)cc2[C@H]2CCCN2c2ccn3ncc(c3n2)C(=O)N1.O=C(O)CC(O)(CC(=O)O)C(=O)O [Compound 1 citrate Form A],Post-stability XRPD: changes to form or crystallinity,[3]; salt recovered from TBME,a decrease to crystallinity but no change to form
same,Post-stability XRPD: changes to form or crystallinity,[3]; salt recovered from acetone,a decrease to crystallinity but no change to form
same,"Hygroscopicity, mass uptake by DVS",[2],around 1.8%
"C[C@@H]1CCc2ncc(F)cc2[C@H]2CCCN2c2ccn3ncc(c3n2)C(=O)N1 [Compound 1, (6R,15R)-9-fluoro-15-methyl-2,11,16,20,21,24-hexaazapentacyclo[16.5.2.0^2,6.0^7,12.0^21,25]pentacosa-1(24),7,9,11,18(25),19,22-heptaen-17-one]",Crystalline form by XRPD after exposure to GVS humidity conditions,[1]; post-GVS XRPD,no changes to form or crystallinity; also recorded: no changes in crystalline form
same,1-week stability test: change in purity (UPLC),[4]; 40° C./75% RH,no change in purity
same,1-week stability test: change to form (XRPD),[4]; 40° C./75% RH,no change to form
same,1-week stability test: change in purity (UPLC),[4]; 80° C.,no change in purity
same,1-week stability test: change to form (XRPD),[4]; 80° C.,no change to form
same,Average purity after 1-week stability test (UPLC),[4]; 80° C. test,99.3%
same,1-week stability test: change in purity (UPLC),[4]; ambient light,no change in purity
same,1-week stability test: change to form (XRPD),[4]; ambient light,no change to form
same,Average purity after 1-week stability test (UPLC),[4]; ambient light test,99.2%
same,Average purity after 1-week stability test (UPLC),[4]; relative humidity test (40° C./75% RH),99.2%
same,"Hygroscopicity, mass uptake by DVS",[2],about 0.7%
same,Crystalline form by XRPD after exposure to DVS humidity conditions,[2],no change in crystalline form
same,solubility,"[8]; 1,2-Dimethoxyethane",8.3 mg/mL
same,solubility,"[8]; 1,4-Dioxane",8.3 mg/mL
same,solubility,[8]; 1-butanol,17 mg/mL
same,solubility,[8]; 2-Ethoxy ethanol,50 mg/mL
same,solubility,[8]; 2-Propanol,14.3 mg/mL
same,solubility,[8]; 2-butanone,11.1 mg/mL
same,solubility,[8]; Acetone,11.1 mg/mL
same,solubility,[8]; Acetonitrile,12.5 mg/mL
same,solubility,[8]; Dimethylsulfoxide,50 mg/mL
same,solubility,[8]; Ethanol,20 mg/mL
same,solubility,[8]; Methanol,50 mg/mL
same,solubility,[8]; Methylisobutyl ketone,6.25 mg/mL
same,solubility,"[8]; Tetrahydrofuran, 40 °C",20 mg/mL
same,solubility,[8]; anisole,11.1 mg/mL
same,Solvent solubility in words,"[8]; non-polar solvents such as toluene and 1,4-dioxane",low solubility
same,solubility,[8]; Diglyme (bis(2-methoxyethyl ether)),8.3 mg/mL
same,Solvent solubility in words,"[8]; polar aprotic solvents such as acetone, ethyl acetate and acetonitrile",medium solubility
same,Solvent solubility in words,"[8]; polar solvents such as DMSO, DMF and protic solvents such as methanol",high solubility
C[C@@H]1CCc2ncc(F)cc2[C@H]2CCCN2c2ccn3ncc(c3n2)C(=O)N1.O=S(=O)(O)c1ccccc1 [besylate pattern 1],Post-stability XRPD: changes to form or crystallinity,[3]; salt recovered from TBME,preferred orientation but no changes to form
same,Post-stability XRPD: changes to form or crystallinity,[3]; salt recovered from THF,an increase to crystallinity but no changes to form
same,Post-stability XRPD: changes to form or crystallinity,[3]; salt recovered from ethanol,a decrease in crystallinity
